Data on eleven molecules can be found in patent publication US5464861A, “2-thioindoles (selenoindoles) and related disulfides (selenides) which inhibit protein tyrosine kinases and which have antitumor properties” (Warner-Lambert, priority 1993, dated 1995).

Assay [1] concerns human epidermoid carcinoma A431 cells. Particulars: J. Antibiot. 1986;39:170; cited from earlier work.
The test system of assay [2] is human mammary carcinoma MCF-7 and some esophageal tumors. Particulars: nude mice, dose-dependent; cited from earlier work.
Assay [3] concerns EGF mediated phosphorylation of a variety of endogenous proteins. Put plainly: EGF mediated tyrosine phosphorylation, Western blot. Also on record: dose or concentration left out as unconfirmed. The assay is classed as cell-based, mouse. The conditions noted are these: Swiss 3T3. On the procedure:
(§1) Swiss 3T3 fibroblasts, that were growth arrested in serum-free media for 24 hours, were exposed to various concentrations of compound for 2 hours. The cells were then exposed to individual growth factors for 5 minutes and proteins that were phosphorylated on tyrosine in response to the mitogens and were detected by Western blotting techniques using phosphotryosine antibodies. Similar techniques were used for tumor cell lines except the time in serum-free media was increased.
(In general: Immunoblotting shows a protein as a band on a membrane.)

Assay [4] relates to MDA-231 breast. Put plainly: Growth inhibition assay, MDA-231. The conditions noted are these: Homo sapiens, MDA-MB-231, read-out: IC50 cell growth inhibition. The assay is classed as cell-based.
The subject of assay [5] is MDV-7 breast. Put plainly: Growth inhibition assay, MDV-7. The conditions noted are these: Homo sapiens, read-out: IC50 cell growth inhibition. The assay is classed as cell-based.
Assay [6] concerns the target T1, epidermal growth factor receptor tyrosine kinase (Homo sapiens, UniProt P00533).
T1 construct: A native 170,000 epidermal growth factor receptor-kinase complex from shed plasma membrane vesicles; endogenous in cells
The experiment in a line: EGF receptor tyrosine kinase assay (P^32 incorporation in GAT). Particulars: for IC50: Table 2, EGRF-R, IC50 entries, read-out: IC50 (EGFR TK); for inhibition at 100 µM: EGRF-R, read-out: % Inhibition at 100 μM (EGFR TK). The assay is classed as biochemical. The method, boiled down: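 Receptor pre-activated with 150 ng EGF for 10 min at room temperature. ATP with or without compound then added and incubated 10 min at room temperature.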

Assay [7] has as its system MDA 468 breast. Put plainly: Growth inhibition assay, MDA 468. The assay is classed as cell-based. Particulars: Homo sapiens, read-out: IC50 cell growth inhibition.
For assay [8], the system named is HT-29 colon. Put plainly: Growth inhibition assay, HT-29. The assay is classed as cell-based. The conditions noted are these: Homo sapiens, read-out: IC50 cell growth inhibition.
Assay [9] relates to Swiss 3T3 mouse fibroblasts. The experiment in a line: Growth inhibition assay, Swiss 3T3 fibroblasts. The assay is classed as cell-based.
Method: Swiss 3T3 mouse fibroblasts were maintained in dMEM/F12 media containing 10% fetal calf serum. […] The cells were grown at 37° C. under 5% CO2 for 72 hours and then counted by Coulter counter. The data were expressed as the concentration of inhibitor necessary to decrease the growth rate by 50%.
For assay [10], the system named is PDGF mediated autophosphorylation of the PDGF receptor and tyrosine phosphorylation of other endogenous proteins. The experiment in a line: PDGF mediated tyrosine phosphorylation, Western blot. The assay is classed as cell-based, mouse. Also on record: dose or concentration left out as unconfirmed. The conditions noted are these: Swiss 3T3. The procedure: as §1
For assay [11], the system named is human tumor cell lines as well as the Swiss 3T3 fibroblasts. Put plainly: Growth inhibition of a variety of human tumor cell lines. The assay is classed as cell-based, human; mouse. The procedure:
Swiss 3T3 mouse fibroblasts were maintained in dMEM/F12 media containing 10% fetal calf serum. Two mL of cells at a density of 1×10^4/mL were placed in 24-well plates plus or minus various concentrations of the inhibitor. The cells were grown at 37° C. under 5% CO2 for 72 hours and then counted by Coulter counter. The data were expressed as the concentration of inhibitor necessary to decrease the growth rate by 50%.

In assay [12] the test system is A549 lung. The experiment in a line: Growth inhibition assay, A549. The assay is classed as cell-based. Particulars: Homo sapiens, read-out: IC50 cell growth inhibition.
Assay [13] relates to A431 epidermoid. The experiment in a line: Growth inhibition assay, A431. The assay is classed as cell-based. The conditions noted are these: Homo sapiens, A-431, read-out: IC50 cell growth inhibition.
Assay [14] concerns bFGF mediated tyrosine phosphorylation. Put plainly: bFGF mediated tyrosine phosphorylation, Western blot. The assay is classed as cell-based, mouse. The procedure:
as §1

The subject of assay [15] is Swiss 3T3 fibroblasts. The experiment in a line: Growth factor mediated mitogenesis (tritiated thymidine incorporation). The assay is classed as cell-based. Particulars: Mus musculus, Swiss-3T3, 24 h. The procedure: Swiss 3T3 fibroblasts, that were growth arrested in serum-free media for 24 hours, were exposed to various concentrations of compound for 2 hours. The cells were then exposed to individual growth factors for 24 hours and mitogenesis assessed by measuring tritiated thymidine incorporation into DNA.
The concentration of 21 and 70 required to inhibit growth factor mediated mitogenesis by 50% for the following growth factors was as follows: […]

For assay [16], the target named is T2, human PDGF β receptor intracellular tyrosine kinase domain (Homo sapiens, UniProt P09619).
T2 construct: human PDGF β receptor intracellular tyrosine kinase domain; made in house; host or cells: SF9 insect cells, recombinant baculovirus; cell lysates used
T2 sequence (P09619 554-1106 limits assumed): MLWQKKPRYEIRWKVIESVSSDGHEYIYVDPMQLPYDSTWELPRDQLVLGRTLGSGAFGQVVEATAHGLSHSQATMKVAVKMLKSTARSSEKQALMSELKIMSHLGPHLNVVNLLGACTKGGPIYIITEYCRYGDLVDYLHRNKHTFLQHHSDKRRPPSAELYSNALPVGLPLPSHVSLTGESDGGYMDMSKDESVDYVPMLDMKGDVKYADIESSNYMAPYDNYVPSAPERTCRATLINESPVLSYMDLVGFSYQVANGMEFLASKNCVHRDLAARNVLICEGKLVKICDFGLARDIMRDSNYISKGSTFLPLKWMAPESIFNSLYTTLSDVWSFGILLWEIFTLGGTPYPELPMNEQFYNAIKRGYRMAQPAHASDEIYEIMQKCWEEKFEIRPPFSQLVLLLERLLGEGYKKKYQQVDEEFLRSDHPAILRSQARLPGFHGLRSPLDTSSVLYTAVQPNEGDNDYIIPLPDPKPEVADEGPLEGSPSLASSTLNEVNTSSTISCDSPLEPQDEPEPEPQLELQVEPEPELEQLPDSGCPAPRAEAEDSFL
The experiment in a line: PDGF receptor tyrosine kinase inhibition assay (P^32 incorporation in Glu-Tyr). The assay is classed as biochemical. The conditions noted are these: for inhibition at 100 µM: read-out: % Inhibition at 100 μM (PDGFR TK).
Method: Recombinant baculovirus containing human PDGF β receptor intracellular tyrosine kinase domain was used to infect SF9 cells to overexpress the protein, and cell lysates were used for the assay. The ability of the tyrosine kinase to phosphorylate glutamate tyrosine substrate in the presence of P^32 -ATP and inhibitor was measured by counting the incorporation of P^32 in Glu-Tyr in TCAprecipitable material.

The mark [17] stands for this setting: Swiss 3T3, 72 hours, Table 2, read-out: IC50 growth inhibition.
Setting [18] is: Swiss-3T3, 72 h, read-out: IC50 growth inhibition.

Structures are written as SMILES. Like-named read-outs stand apart in the source and are kept apart here.

T1 sequence (P00533 25-1210): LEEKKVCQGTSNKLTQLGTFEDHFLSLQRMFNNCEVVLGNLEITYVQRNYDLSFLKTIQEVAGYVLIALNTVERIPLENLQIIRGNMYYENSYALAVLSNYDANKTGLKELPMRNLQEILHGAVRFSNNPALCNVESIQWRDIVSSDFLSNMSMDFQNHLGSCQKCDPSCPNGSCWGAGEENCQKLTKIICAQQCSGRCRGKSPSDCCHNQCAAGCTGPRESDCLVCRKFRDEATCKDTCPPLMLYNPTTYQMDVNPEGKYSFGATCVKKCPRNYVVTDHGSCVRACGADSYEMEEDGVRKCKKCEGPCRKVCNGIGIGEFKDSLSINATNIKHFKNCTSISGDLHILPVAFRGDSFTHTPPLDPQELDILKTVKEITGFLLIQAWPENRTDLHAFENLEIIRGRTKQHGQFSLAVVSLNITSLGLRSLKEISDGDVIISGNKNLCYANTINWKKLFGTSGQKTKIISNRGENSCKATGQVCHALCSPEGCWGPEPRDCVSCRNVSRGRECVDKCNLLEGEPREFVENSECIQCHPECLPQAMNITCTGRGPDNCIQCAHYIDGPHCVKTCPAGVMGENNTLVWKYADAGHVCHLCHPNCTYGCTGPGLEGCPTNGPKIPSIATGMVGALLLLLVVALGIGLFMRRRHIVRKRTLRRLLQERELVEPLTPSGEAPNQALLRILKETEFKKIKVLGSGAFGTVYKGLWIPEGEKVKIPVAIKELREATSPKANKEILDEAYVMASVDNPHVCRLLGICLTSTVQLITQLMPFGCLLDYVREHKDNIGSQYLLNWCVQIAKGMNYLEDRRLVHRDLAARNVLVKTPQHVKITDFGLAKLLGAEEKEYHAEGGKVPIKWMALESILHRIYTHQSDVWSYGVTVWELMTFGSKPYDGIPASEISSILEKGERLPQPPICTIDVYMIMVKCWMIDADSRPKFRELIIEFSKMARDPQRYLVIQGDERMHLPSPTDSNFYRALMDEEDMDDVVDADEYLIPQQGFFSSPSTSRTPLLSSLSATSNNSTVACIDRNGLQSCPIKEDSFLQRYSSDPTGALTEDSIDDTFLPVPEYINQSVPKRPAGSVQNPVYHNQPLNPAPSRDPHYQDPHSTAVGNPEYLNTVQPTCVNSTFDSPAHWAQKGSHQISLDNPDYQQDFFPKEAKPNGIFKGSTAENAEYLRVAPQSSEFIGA
T1 sequence (P01133 971-1023 partner limits assumed): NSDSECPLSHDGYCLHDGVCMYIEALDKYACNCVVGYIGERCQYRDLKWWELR

Turning to `O=CN/C=C/c1cc(O)ccc1O` [erbstatin], in assay [1], the “IC50 growth of A431 cells” value is 3.6 µg/mL. Further, the tumor growth inhibition result in assay [2] is reported as “inhibits the growth”.
With `CN1C(=S)C(C(=O)Nc2ccccc2)c2ccccc21` (stereo not drawn) [Compound 21, N-phenyl (1-methyl-2-thioxo-3-indolinyl)carboxamide], in [3], the “suppression of EGF mediated phosphorylation of a variety of endogenous proteins” value is “suppressed”. Further, the IC50 (as a rule, the concentration that gives 50% inhibition) in assay [4] worked out at 15 µM; in assay [5], 39 µM; in assay [6], 1 µM; in assay [7], 43 µM; in [8], 55 µM; in [9] (setting [17]), 64 µM. Besides, the 50% inhibitory concentration (IC50) in [9] (Swiss 3T3 fibroblasts, cell line table, read-out: IC50 cell growth inhibition) amounted to 64 µM; in [12] it was 30 µM; in assay [13], 62 µM; in assay [15] (EGF) it was 2 µM; in assay [15] (PDGF) it was 8 µM; in assay [15] (bFGF), 13 µM. Further, in [15] (serum), half-maximal inhibition (IC50) was put at 19 µM. Besides, the “suppression of PDGF mediated autophosphorylation of the PDGF receptor and tyrosine phosphorylation of other endogenous proteins” value in [10] is reported as “suppressed”. In addition, the “growth inhibition in words” value in assay [11] was “growth inhibitory”. In addition, the “suppression of bFGF mediated tyrosine phosphorylation” value in assay [14] (Swiss 3T3, 10 to 50 mM) is on record as “suppressed”.
With `CCn1c(SSc2c(C(=O)Nc3ccccc3)c3ccccc3n2CC)c(C(=O)Nc2ccccc2)c2ccccc21` [Compound 71, bis[N-phenyl 1-ethylindolyl-3-carboxamide-(2)]disulfide], the inhibition (in general, the share of the control response that was lost under treatment) at 100 µM in assay [6] is 20%; in assay [16] it was 5%. Also, the half-maximal inhibitory concentration (IC50) in assay [9] (setting [18]) was determined as 52 µM.
For the molecule `Cn1c(SSc2c(CC(=O)O)c3ccccc3n2C)c(CC(=O)O)c2ccccc21` [Compound 32, bis[1-methylindolyl-3-acetic acid-(2)]-disulfide], the results for the 50% inhibitory concentration (IC50) in assay [6] and in assay [9] (setting [17]) were 34.5 µM and 36 µM, respectively. Moreover, in assay [16] (at 100 μM, PDGF-R), the inhibition at 100 µM was found to be 4.7%.
Regarding `CCOC(=O)Cc1c(SSc2c(CC(=O)OCC)c3ccccc3n2C)n(C)c2ccccc12` [Compound 33, bis[ethyl 1-methylindolyl-3-acetate-(2)]disulfide], the IC50 is 39 µM in assay [6] and 3 µM in assay [9] (setting [18]). Besides, the inhibition at 100 µM in assay [16] (at 100 μM, PDGF-R) came to 16.7%.
As for `Cc1cccc2c1c(C(=O)Nc1ccccc1)c(SSc1c(C(=O)Nc3ccccc3)c3c(C)cccc3n1C)n2C` [Compound 75, bis[N-phenyl 1,4-dimethylindolyl-3-carboxamide-(2)]disulfide], the inhibition at 100 µM came out at 6% in [6] and 3% in assay [16] (at 100 μM, PDGF-R). In assay [9] (setting [17]), the concentration for half-maximal inhibition (IC50) amounted to 4 µM.
In the case of `Cn1c(SSc2c(C(=O)Nc3ccccc3)c3ccccc3n2C)c(C(=O)Nc2ccccc2)c2ccccc21` [Compound 70, bis [N-phenyl 1-methylindolyl-3-carboxamide-(2)] disulfide], the IC50 in assay [6] turned out to be 8.6 µM; in assay [9] (setting [17]) it was 12 µM; in [15] (EGF), 3 µM; in assay [15] (PDGF) it was 4 µM; in assay [15] (bFGF), 3 µM; in [15] (serum) it was 3 µM. Also, in assay [16] (at 100 μM, PDGF-R), the inhibition at 100 µM worked out at 1%. The “inhibition of bFGF mediated tyrosine phosphorylation (selectivity over EGF and PDGF)” value in [14] (Swiss 3T3, as low as 2 mM) was “more selective and inhibited only bFGF mediated tyrosine phosphorylation”.
Turning to `CCOC(=O)CCc1c(SSc2[nH]c3cc(C)ccc3c2CCC(=O)OCC)[nH]c2cc(C)ccc12` [Compound 44, bis[ethyl 6-methylindolyl-3-propanoate-(2)] disulfide], the inhibition at 100 µM in assay [6] was 16.6%; in assay [16] (at 100 μM, PDGF-R), 5%. Also, in [9] (setting [17]), the IC50 stood at 2.4 µM.
Taken in the same sequence, the figures for `Cc1ccc2c(c1)c(C(=O)Nc1ccccc1)c(SSc1c(C(=O)Nc3ccccc3)c3cc(C)ccc3n1C)n2C` [Compound 76, bis [N-phenyl 1,5-dimethylindolyl-3-carboxamide-(2)] disulfide] were 7%, 19% and 22 µM.
Turning to `COc1ccc2c(C(=O)Nc3ccccc3)c(SSc3c(C(=O)Nc4ccccc4)c4ccc(OC)cc4n3C)n(C)c2c1` [Compound 81, bis[N-phenyl 6-methoxy-1-methylindolyl-3-carboxamide-(2)]disulfide], the results for the IC50 in [6] and in [9] (setting [17]) were 3.6 µM and 17 µM, respectively. In addition, the inhibition at 100 µM in assay [16] (at 100 μM, PDGF-R) amounted to 2%.
Turning to `CN(C)CCNC(=O)c1c(SSc2c(C(=O)NCCN(C)C)c3ccccc3n2C)n(C)c2ccccc12` [Compound 115, 2,2'-dithiobis [N-(N,N-dimethylaminoethyl) 1-methylindolyl-3-carboxamide]], the half-maximal inhibitory concentration (IC50) in assay [6] is 26 µM; in assay [9] (setting [17]) it was more than 50 µM; in assay [16] (Table 2, PDGF-R, IC50 entries, read-out: IC50 (PDGFR TK)), 19.7 µM.
